Measurements taken from ChEMBL document CHEMBL1240532, “Spiroindolones, a potent compound class for the treatment of malaria” (Science, 2010).

Tests used:
Plasmodium falciparum [1] = assay: Antimalarial activity against pyrimethamine-resistant Plasmodium falciparum 7G8 after 48 hrs incubation by [3H]hypoxanthine incorporation assay
[2] = Cytotoxicity against human THP1 cells after 4 days by XTT assay; format: cell-based; settings: THP-1 cells
[3] = Cytotoxicity against human HepG2 cells after 4 days by XTT assay; format: cell-based
[4] = biological target: Voltage-gated inwardly rectifying potassium channel KCNH2 (Homo sapiens, UniProt Q12809); assay: Inhibition of human ERG by patch clamp method
Adenosine receptor A2a = Adenosine receptor A2a (Homo sapiens, UniProt P29274); assay: Binding affinity to human recombinant adenosine 2a receptor
Adenosine receptor A3 = Adenosine receptor A3 (Homo sapiens, UniProt P0DMS8); assay: Binding affinity to human recombinant adenosine 3 receptor
Sequence of Adenosine receptor A3 (P0DMS8 whole entry): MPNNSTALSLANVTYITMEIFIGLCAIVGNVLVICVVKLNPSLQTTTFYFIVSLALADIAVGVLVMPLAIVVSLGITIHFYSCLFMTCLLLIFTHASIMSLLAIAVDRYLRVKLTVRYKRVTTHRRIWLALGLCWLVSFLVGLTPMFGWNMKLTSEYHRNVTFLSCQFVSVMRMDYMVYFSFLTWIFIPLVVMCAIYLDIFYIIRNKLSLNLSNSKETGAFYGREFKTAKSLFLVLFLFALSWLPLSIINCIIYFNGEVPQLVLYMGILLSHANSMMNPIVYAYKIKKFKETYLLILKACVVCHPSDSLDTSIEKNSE

[5] = Binding affinity to human recombinant adenosine transporter
[6] = biological target: Beta-3 adrenergic receptor (Homo sapiens, UniProt P13945); assay: Binding affinity to human recombinant adrenergic beta3 receptor
[7] = biological target: Alpha-2A adrenergic receptor (Homo sapiens, UniProt P08913); assay: Binding affinity to human recombinant alpha-2a receptor
Sequence of Alpha-2A adrenergic receptor (P08913 whole entry): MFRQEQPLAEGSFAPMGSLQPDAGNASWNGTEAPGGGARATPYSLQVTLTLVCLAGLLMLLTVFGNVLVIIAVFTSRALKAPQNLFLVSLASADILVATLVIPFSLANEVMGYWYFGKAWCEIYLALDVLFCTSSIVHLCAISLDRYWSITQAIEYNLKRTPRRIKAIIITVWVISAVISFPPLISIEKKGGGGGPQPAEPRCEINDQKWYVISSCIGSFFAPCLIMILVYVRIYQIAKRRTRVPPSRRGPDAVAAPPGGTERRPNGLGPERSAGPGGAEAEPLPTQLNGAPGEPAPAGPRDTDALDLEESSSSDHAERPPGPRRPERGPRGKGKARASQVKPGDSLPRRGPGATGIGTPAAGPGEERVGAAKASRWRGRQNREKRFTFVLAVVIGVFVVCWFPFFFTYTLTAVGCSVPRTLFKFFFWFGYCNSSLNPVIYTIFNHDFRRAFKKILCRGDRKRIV

[8] = biological target: Alpha-2C adrenergic receptor (Homo sapiens, UniProt P18825); assay: Binding affinity to human recombinant alpha2c receptor
Androgen receptor = Androgen receptor (Homo sapiens, UniProt P10275); assay: Binding affinity to human recombinant androgen receptor
Sequence of Androgen receptor (P10275 whole entry): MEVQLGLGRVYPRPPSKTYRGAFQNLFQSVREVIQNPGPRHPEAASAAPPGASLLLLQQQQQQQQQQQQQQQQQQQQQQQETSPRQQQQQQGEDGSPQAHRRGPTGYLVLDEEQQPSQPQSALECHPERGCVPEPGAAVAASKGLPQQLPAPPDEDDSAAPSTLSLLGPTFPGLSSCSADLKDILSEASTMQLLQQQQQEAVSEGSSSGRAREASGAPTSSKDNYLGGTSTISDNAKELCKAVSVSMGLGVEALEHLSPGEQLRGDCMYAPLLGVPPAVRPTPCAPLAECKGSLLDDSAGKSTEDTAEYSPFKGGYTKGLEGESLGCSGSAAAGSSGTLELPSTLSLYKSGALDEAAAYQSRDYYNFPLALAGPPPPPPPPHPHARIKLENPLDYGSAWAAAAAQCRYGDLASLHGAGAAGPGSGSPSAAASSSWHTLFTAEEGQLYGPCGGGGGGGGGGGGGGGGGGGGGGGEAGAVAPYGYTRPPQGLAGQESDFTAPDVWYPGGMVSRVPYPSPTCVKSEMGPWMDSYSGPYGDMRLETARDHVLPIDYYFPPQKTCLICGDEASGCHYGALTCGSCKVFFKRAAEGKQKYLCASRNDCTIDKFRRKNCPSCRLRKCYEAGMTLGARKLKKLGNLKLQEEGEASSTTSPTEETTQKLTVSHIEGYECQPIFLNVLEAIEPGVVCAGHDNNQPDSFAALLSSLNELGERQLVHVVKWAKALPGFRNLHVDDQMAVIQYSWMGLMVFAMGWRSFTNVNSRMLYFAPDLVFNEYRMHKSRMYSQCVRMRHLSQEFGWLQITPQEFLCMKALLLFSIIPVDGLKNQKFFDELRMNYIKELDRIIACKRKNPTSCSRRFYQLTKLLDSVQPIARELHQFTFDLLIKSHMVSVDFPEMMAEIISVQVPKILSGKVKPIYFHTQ

[9] = biological target: Type-1 angiotensin II receptor (Homo sapiens, UniProt P30556); assay: Binding affinity to human recombinant angiotensin2 AT1 receptor
B1 bradykinin receptor = B1 bradykinin receptor (Homo sapiens, UniProt P46663); assay: Binding affinity to human recombinant bradykinin B1 receptor
Sequence of B1 bradykinin receptor (P46663 whole entry): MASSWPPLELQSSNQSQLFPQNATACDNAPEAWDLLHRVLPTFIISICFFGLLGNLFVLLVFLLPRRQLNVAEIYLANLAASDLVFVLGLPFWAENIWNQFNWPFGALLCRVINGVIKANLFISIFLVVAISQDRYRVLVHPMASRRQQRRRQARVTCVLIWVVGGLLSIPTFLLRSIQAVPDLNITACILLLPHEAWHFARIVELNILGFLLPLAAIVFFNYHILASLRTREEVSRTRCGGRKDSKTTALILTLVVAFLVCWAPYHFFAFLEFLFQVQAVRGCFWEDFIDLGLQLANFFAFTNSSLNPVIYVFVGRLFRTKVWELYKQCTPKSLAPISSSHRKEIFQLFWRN

[10] = Binding affinity to rat N-type calcium channel
[11] = biological target: Cholecystokinin receptor type A (Homo sapiens, UniProt P32238); assay: Binding affinity to human recombinant cholecystokinin A receptor
[12] = biological target: Prostaglandin G/H synthase 2 (Homo sapiens, UniProt P35354); assay: Binding affinity to human recombinant COX2
Sequence of Prostaglandin G/H synthase 2 (P35354 whole entry): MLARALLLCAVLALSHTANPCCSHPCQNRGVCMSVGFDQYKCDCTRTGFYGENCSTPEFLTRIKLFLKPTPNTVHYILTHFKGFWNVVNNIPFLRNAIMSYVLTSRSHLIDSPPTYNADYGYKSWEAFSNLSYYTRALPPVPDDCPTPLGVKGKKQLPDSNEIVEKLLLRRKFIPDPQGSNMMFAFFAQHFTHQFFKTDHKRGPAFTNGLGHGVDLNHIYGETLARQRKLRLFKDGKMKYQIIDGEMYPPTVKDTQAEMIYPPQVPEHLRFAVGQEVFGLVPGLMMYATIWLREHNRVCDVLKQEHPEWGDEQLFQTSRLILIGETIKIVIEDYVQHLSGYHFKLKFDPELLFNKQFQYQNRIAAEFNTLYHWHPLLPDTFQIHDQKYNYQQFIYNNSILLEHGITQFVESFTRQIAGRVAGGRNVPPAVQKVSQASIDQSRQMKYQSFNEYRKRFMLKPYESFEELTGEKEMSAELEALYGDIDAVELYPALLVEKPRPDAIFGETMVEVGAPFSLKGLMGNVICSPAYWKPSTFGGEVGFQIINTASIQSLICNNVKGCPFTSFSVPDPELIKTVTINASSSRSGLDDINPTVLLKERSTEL

D(2) dopamine receptor = D(2) dopamine receptor (Homo sapiens, UniProt P14416); assay: Binding affinity to human recombinant dopamine D2 receptor
D(4) dopamine receptor = D(4) dopamine receptor (Homo sapiens, UniProt P21917); assay: Binding affinity to human recombinant dopamine D4.4 receptor
Sequence of D(4) dopamine receptor (P21917 whole entry): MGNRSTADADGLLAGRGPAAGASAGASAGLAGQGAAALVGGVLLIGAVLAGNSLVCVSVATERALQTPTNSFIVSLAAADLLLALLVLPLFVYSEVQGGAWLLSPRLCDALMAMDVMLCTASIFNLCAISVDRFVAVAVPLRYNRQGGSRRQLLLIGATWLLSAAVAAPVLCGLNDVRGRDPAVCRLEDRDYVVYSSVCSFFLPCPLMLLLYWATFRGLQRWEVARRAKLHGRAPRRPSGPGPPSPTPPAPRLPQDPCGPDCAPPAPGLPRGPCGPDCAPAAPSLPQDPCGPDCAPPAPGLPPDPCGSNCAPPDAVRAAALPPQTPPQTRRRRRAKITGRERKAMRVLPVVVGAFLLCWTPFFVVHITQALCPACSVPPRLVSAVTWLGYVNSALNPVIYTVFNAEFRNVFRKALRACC

Endothelin-1 receptor = Endothelin-1 receptor (Homo sapiens, UniProt P25101); assay: Binding affinity to human recombinant endothelin A receptor
Estrogen receptor = Estrogen receptor (Homo sapiens, UniProt P03372); assay: Binding affinity to human recombinant ERalpha
Sequence of Estrogen receptor (P03372 whole entry): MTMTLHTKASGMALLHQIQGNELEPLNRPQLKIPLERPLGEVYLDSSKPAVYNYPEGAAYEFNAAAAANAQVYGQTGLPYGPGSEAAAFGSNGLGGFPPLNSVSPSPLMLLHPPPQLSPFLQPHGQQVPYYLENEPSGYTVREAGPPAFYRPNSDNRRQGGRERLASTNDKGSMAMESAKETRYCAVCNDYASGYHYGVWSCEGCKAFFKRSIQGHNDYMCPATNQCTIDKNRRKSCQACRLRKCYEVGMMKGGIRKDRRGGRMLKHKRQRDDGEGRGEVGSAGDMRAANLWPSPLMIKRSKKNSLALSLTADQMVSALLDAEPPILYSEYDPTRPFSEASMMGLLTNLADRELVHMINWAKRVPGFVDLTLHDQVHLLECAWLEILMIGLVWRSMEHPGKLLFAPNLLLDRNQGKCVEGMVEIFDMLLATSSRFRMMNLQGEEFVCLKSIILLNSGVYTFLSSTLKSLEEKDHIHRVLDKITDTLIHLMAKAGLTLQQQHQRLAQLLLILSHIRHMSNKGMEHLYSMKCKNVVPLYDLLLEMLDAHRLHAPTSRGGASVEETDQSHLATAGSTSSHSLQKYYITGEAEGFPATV

Estrogen receptor beta = Estrogen receptor beta (Homo sapiens, UniProt Q92731); assay: Binding affinity to human recombinant ERbeta
Sequence of Estrogen receptor beta (Q92731 whole entry): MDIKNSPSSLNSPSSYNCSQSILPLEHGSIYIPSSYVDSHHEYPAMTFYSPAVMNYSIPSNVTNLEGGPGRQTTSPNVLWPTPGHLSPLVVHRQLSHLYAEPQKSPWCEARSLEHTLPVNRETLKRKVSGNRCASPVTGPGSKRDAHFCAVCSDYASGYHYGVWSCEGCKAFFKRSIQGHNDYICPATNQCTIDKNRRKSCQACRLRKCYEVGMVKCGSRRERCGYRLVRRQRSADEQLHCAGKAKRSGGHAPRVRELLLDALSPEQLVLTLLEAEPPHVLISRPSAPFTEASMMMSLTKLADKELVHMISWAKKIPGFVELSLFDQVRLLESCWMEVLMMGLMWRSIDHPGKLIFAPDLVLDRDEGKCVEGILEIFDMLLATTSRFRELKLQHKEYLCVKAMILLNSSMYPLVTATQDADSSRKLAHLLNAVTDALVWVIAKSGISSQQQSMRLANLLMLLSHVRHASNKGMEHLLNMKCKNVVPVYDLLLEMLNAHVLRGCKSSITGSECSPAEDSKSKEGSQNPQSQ

Melanocortin receptor 3 = Melanocortin receptor 3 (Homo sapiens, UniProt P41968); assay: Binding affinity to human recombinant melanocortin MC3 receptor
Motilin receptor = Motilin receptor (Homo sapiens, UniProt O43193); assay: Binding affinity to human recombinant motilin receptor
Substance-P receptor = Substance-P receptor (Homo sapiens, UniProt P25103); assay: Binding affinity to human recombinant neurokinin NK1 receptor
[13] = biological target: Hydroxycarboxylic acid receptor 2 (Homo sapiens, UniProt Q8TDS4); assay: Binding affinity to human recombinant niacin receptor
[14] = biological target: Sodium-dependent noradrenaline transporter (Homo sapiens, UniProt P23975); assay: Binding affinity to human recombinant norepinephrine transporter
[15] = biological target: Delta-type opioid receptor (Homo sapiens, UniProt P41143); assay: Binding affinity to human recombinant opiate delta receptor
[16] = biological target: Kappa-type opioid receptor (Homo sapiens, UniProt P41145); assay: Binding affinity to human recombinant opiate kappa receptor
Sequence of Kappa-type opioid receptor (P41145 whole entry): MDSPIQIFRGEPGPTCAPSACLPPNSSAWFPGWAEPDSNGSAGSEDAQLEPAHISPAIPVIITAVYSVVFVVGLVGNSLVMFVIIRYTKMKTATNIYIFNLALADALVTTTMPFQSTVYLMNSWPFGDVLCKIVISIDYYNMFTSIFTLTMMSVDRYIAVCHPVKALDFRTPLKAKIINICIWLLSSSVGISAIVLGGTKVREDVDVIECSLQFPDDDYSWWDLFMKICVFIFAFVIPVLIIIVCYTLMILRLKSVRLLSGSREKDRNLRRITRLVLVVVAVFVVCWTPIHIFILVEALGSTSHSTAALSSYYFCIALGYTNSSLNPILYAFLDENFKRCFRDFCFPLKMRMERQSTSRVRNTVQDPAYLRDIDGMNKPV

Phosphodiesterase 3 = Phosphodiesterase 3 (Homo sapiens, UniProt Q14432+Q13370); assay: Binding affinity to human recombinant PDE3; format: protein assay
[17] = biological target: 5-hydroxytryptamine receptor 2A (Homo sapiens, UniProt P28223); assay: Binding affinity to human recombinant serotonin 5-HT2A receptor
Vasopressin V2 receptor = Vasopressin V2 receptor (Homo sapiens, UniProt P30518); assay: Binding affinity to human recombinant vasopressin V2 receptor
Sequence of Vasopressin V2 receptor (P30518 whole entry): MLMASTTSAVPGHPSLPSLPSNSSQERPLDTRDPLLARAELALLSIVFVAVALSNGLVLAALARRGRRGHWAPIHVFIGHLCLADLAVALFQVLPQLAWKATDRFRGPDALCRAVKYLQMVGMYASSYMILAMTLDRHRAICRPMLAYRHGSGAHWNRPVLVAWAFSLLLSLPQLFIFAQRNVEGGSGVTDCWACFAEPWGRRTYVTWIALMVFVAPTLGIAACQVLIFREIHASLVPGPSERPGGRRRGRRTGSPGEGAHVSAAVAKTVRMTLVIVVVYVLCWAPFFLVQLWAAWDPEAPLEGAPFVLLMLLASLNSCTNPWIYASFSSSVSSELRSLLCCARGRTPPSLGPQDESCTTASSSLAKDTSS

[18] = Volume of distribution at steady state in CD1 mouse at 5.4 mg/kg, iv; format: ADME, organism-based; parameters: dose 5.4 mg/kg, route intravenous; settings: in vivo, read-out: Vdss
[19] = Cmax in CD1 mouse at 24.6 mg/kg, po; format: ADME, organism-based; parameters: dose 24.6 mg/kg, route oral; settings: in vivo
[20] = AUC (0 to infinity) in Wistar rat at 5 mg/kg, iv; format: ADME, organism-based; parameters: time infinity, dose 5 mg/kg, route intravenous; settings: plasma
[21] = Clearance in Wistar rat at 5 mg/kg, iv; format: ADME, organism-based; parameters: dose 5 mg/kg, route intravenous; settings: in vivo
[22] = Cmax in Wistar rat at 23.7 mg/kg, po; format: ADME, organism-based; parameters: dose 23.7 mg/kg, route oral; settings: in vivo
[23] = Oral bioavailability in Wistar rat at 23.7 mg/kg; format: ADME, organism-based; settings: in vivo
[24] = Intrinsic clearance in dog liver microsome; format: ADME, Canis lupus familiaris; settings: liver microsomes
[25] = Intrinsic clearance in monkey liver microsome; format: ADME, Macaca mulatta; settings: rhesus monkey, liver microsomes
Plasmodium berghei = assay: Antimalarial activity against Plasmodium berghei GFP ANKA infected in NMRI mice (Mus musculus) assessed as cure rate at 50 mg/kg, perorally administered through 0.5% MCM/0.1%solutol HS15 formulation 24 hrs post infection for 3 days measured on day 30 post infection; format: functional; settings: route oral
Plasmodium falciparum [26] = assay: Antimalarial activity against Plasmodium falciparum Dd2 after 72 hrs by SYBR green based fluorescence assay; format: functional, organism-based; settings: Dd2, 72 h
Plasmodium falciparum [27] = assay: Antimalarial activity against NITD609-resistant Plasmodium falciparum Dd2 Clone2 bearing P-type ATPase4 T418N and P990R mutations after 72 hrs by SYBR green based fluorescence assay; format: functional, organism-based; settings: Dd2, 72 h
Plasmodium falciparum [28] = format: functional, organism-based; settings: Dd2, 72 h, read-out: IC50
[29] = Partition coefficient, log P of the compound at pH 7.4; format: physicochemical; settings: octanol/water
Plasmodium falciparum [30] = assay: Inhibition of protein synthesis in NITD609-resistant Plasmodium falciparum Dd2 Clone1 within 1 hrs by [35S]Met/Cys incorporation assay; format: functional
[31] = Mutagenic activity in Salmonella Typhimurium by Ames test; format: toxicity; settings: salmonella enterica subsp. enterica serovar typhimurium
Mus musculus = assay: Toxicity in Plasmodium berghei GFP ANKA infected NMRI mice (Mus musculus) assessed as reduction in parasitemia dosed in ETPGS formulation 1 day postinfection measured 72 hrs post infection; format: organism-based; settings: in vivo
in vivo [32] = settings: CD1, mouse, iv, 5.4 mg/kg
Description: Elimination half life in CD1 mouse at 5.4 mg/kg, iv

in vivo [33] = settings: Wistar, rat, iv, 5 mg/kg
Description: Elimination half life in Wistar rat at 5 mg/kg, iv

in vivo [34] = settings: Wistar, rat, po, 23.7 mg/kg
Description: Elimination half life in Wistar rat at 23.7 mg/kg, po

Plasmodium falciparum [35] = assay: microbe, parasite or virus in culture; settings: Dd2, 72 h
Plasmodium falciparum [36] = assay: microbe, parasite or virus in culture; settings: Dd2, 72 h; remark: listed apart in the source
Description: Antimalarial activity against Plasmodium falciparum Dd2 containing attB site inserted in parasite genome and using EF1-alpha promoter driven expressing ATP4 D1247Y mutant after 72 hrs by SYBR green based fluorescence assay

Plasmodium falciparum [37] = assay: microbe, parasite or virus in culture; settings: Dd2, 72 h; remark: listed apart in the source
Description: Antimalarial activity against Plasmodium falciparum Dd2 containing attB site inserted in parasite genome and using CAM promoter driven expressing ATP4 D1247Y mutant after 72 hrs by SYBR green based fluorescence assay

Plasmodium falciparum [38] = assay: microbe, parasite or virus in culture; settings: Dd2, 72 h; remark: listed apart in the source
Description: Antimalarial activity against Plasmodium falciparum Dd2 containing attB site inserted in parasite genome and using CAM promoter driven expressing ATP4 I398F/P990R mutant after 72 hrs by SYBR green based fluorescence assay

`C[C@H]1Cc2c([nH]c3cc(Cl)c(F)cc23)[C@@]2(N1)C(=O)Nc1ccc(Cl)cc12` [CIPARGAMIN] gave an IC50 (Plasmodium falciparum [1]) of 0.0012 µM, a CC50 at 96 h [2] of 14 µM and a CC50 at 96 h [3] of over 25 µM. For the same compound, the IC50 [4] was over 30 µM, the IC50 (Adenosine receptor A2a) was over 30 µM and the IC50 (Adenosine receptor A3) was 8.3 µM. For the same compound, the IC50 [5] was over 30 µM, the IC50 [6] was over 30 µM and the IC50 [7] was over 10 µM. The IC50 [8] was over 10 µM, the IC50 (Androgen receptor) was over 30 µM and the IC50 [9] was over 30 µM. For the same compound, the IC50 (B1 bradykinin receptor) was over 30 µM, the IC50 [10] was over 10 µM and the IC50 [11] was over 30 µM. For the same compound, the IC50 [12] was over 30 µM, the IC50 (D(2) dopamine receptor) was over 10 µM and the IC50 (D(4) dopamine receptor) was over 10 µM. It also gave an IC50 (Endothelin-1 receptor) of over 30 µM, an IC50 (Estrogen receptor) of over 30 µM and an IC50 (Estrogen receptor beta) of over 30 µM. It also gave an IC50 (Melanocortin receptor 3) of over 30 µM, an IC50 (Motilin receptor) of over 10 µM and an IC50 (Substance-P receptor) of over 10 µM. The IC50 [13] was over 10 µM, the IC50 [14] was over 10 µM and the IC50 [15] was over 10 µM. The IC50 [16] was over 10 µM, the IC50 (Phosphodiesterase 3) was over 10 µM and the IC50 [17] was over 10 µM. It also gave an IC50 (Vasopressin V2 receptor) of over 30 µM, a Vd [18] of 2.11 L/kg and a Cmax [19] of 9.17 µM. For the same compound, the AUC(0-inf) [20] was 61.3 µM·h, the clearance [21] was 3.48 mL/min/kg and the Cmax [22] was 11.7 µM. For the same compound, the bioavailability [23] was 100%, the CLint scaled [24] was 22.1 mL/min/kg and the CLint scaled [25] was 6.05 mL/min/kg. For the same compound, the Activity (Plasmodium berghei) was 100%, the IC50 (Plasmodium falciparum [26]) was 0.00044 µM and the IC50 (Plasmodium falciparum [27]) was 0.0037 µM. The IC50 (Plasmodium falciparum [28]) was 0.0032 µM, the logD [29] was 4.7 and the “inhibition (INH)” value (Plasmodium falciparum [30]) was 50%. For the same compound, the Activity [31] was “Non-toxic”, the Activity (Mus musculus) was “Non-toxic” and the half-life (in vivo [32]) was 3.44 h. It also gave a half-life (in vivo [33]) of 10.7 h, a half-life (in vivo [34]) of 27.7 h and an IC50 (Plasmodium falciparum [35]) of 0.0028 µM. For the same compound, the IC50 (Plasmodium falciparum [36]) was 0.00157 µM, the IC50 (Plasmodium falciparum [37]) was 0.0039 µM and the IC50 (Plasmodium falciparum [38]) was 0.00425 µM.
